Assay results reported in ChEMBL document CHEMBL1649096, “Study of kaempferol glycoside as an insulin mimic reveals glycon to be the key active structure” (2011).
Activity calls are given as the source filed them. No cut-off for these calls is given here.

Experiments:
L6 [1] = experiment: Insulin mimetic activity in rat L6 cells assessed as stimulation of 2-deoxyglucose uptake at 0.1 nM by enzymatic method relative to untreated control; assay type: functional
L6 [2] = experiment: Insulin mimetic activity in rat L6 cells assessed as stimulation of 2-deoxyglucose uptake at 1 nM by enzymatic method relative to untreated control; assay type: functional
L6 [3] = experiment: Insulin mimetic activity in rat L6 cells assessed as stimulation of 2-deoxyglucose uptake at 1 mM by enzymatic method relative to untreated control; assay type: functional, cell-based

Compound | Activity (L6 [1]) [%] | Activity (L6 [2]) | Activity (L6 [1]; filed as antagonist) | Activity (L6 [3])
C[C@@H]1O[C@@H](O[C@H]2C(O)O[C@H](CO)[C@@H](O)[C@@H]2O)[C@H](O)[C@H](O)[C@H]1O (some centres not stated) [NEOHESPERIDOSE] | 200 | 200% | – | –
O=c1c(O[C@@H]2O[C@H](CO)[C@@H](O)[C@H](O)[C@H]2O)c(-c2ccc(O)cc2)oc2cc(O)cc(O)c12 | – | inactive | Irreversible Antagonist | –
O=c1c(O)c(-c2ccc(O)cc2)oc2cc(O)cc(O)c12 | – | inactive | – | –
C[C@H]1O[C@H](O[C@H]2[C@H](Oc3c(-c4ccc(O)cc4)oc4cc(O)cc(O)c4c3=O)O[C@H](CO)[C@@H](O)[C@@H]2O)[C@@H](O)[C@@H](O)[C@@H]1O | – | 200% | – | inactive
